Test results from patent publication US9320745B2, “Use of cholest-4-en-3-one derivatives for obtaining a cytoprotective drug” (TROPHOS, priority 2006, dated 2016).

Tests used:
[1] = system: rabbit ventricular cardiomyocytes; assay: Apoptosis by annexin V marking in doxorubicin-exposed cardiomyocytes; type: cell-based; conditions: 3 hrs after doxorubicin, control 100%
Procedure: (§1) Isolated ventricular cells are obtained from New Zealand male rabbit hearts as described in A. d'Anglemont de Tassigny et al., Fund. Clin. Pharmacol., 18: pp. 531-38, 2004. Briefly, the rabbits (2.0-2.5 kg) are anaesthesized with a pentobarbital (50 mg/kg) solution and then receive heparin (200 IU/kg). The hearts are excised and immediately perfused, for 10-15 minutes by means of a Langendorff apparatus without recirculation with an oxygenated (calcium-free) tyrode isotonic solution (95%, 2-5% CO2) (in mM: NaCl 135, KCl 5.4, Na2PO4 0.33, MgCl2 1.0, HEPES 10, pH adjusted to 7.4 with 1N NaOH at 37° C., 280-300 mOsmol/kgH2O). Next, all the hearts were perfused for 3 minutes in a “recirculation” mode with the same calcium-free Tyrode solution (coronary flow rate, 10-15 mL/min) added with 1 mg/mL of type II collagenase and 0.28 mg/mL of type XIV protease. Finally all the hearts are perfused in a mode without recirculation with the same solution of Tyrode supplemented with 0.3 mM CaCl2 for 10 min. The left ventricle is removed and cut into small pieces; cell dissociation is achieved by mild mechanical stirring. Extracellular calcium is added by increments every 15 minutes, in order to reach a physiological concentration of 1.0 mM. The isolated myocytes are maintained in a medium without serum containing (in mM) NaCl 110, KCl 5.4, Na2PO4 0.33, NaHCO3 25, Glucose 5, MgCl2 0.8, CaCl2 1, pH adjusted to 7.4, right up to 1 h30 before experimentation.
Marking phosphatidylserine with annexin V was used as a quantitative method for measuring apoptosis by using the MiniMacs cell isolation kit (Miltenyi Biotec, Bergisch, Gladbach, Germany). Briefly, the cells exposing phosphatidylserine are marked with annexin V microbeads magnetically, and then passed into a column placed in a magnetic field. The marked cells (which have magnetically marked phosphatidylserine) are retained in the column whereas the non-marked ones (necrotic cells and non-apoptotic cells) are not retained. The column is removed from the magnetic field; the magnetically retained cells exposing phosphatidylserine are eluted as a positive fraction and counted with a Mallassez cell counter. The percentage of apoptotic cells is then referred to the initial number of cells.
Apoptosis is induced in isolated cardiomyocytes by exposing them for 3 to 8 hrs to 1 μM of doxorubicin added in an isotonic solution containing (in mM) NaCl 110, KCl 5.4, Na2PO4 0.33, NaHCO3 25, Glucose 5, MgCl2 0.8, CaCl2 1, pH adjusted to 7.4. Annexin V marking was carried out 3 hrs after the beginning of exposure to doxorubicin since this phenomenon appears very early in the apoptotic cascade. […] The contractility of cardiomyocytes was measured every hour during the 8 hrs of exposure to doxorubicin. […]

monkeys = assay: Toxicological study in monkeys; type: in vivo; conditions: oral, increasing daily doses up to 1,500 mg/kg over 10 days
[2] = system: rabbit ventricular cardiomyocytes; assay: Contractile dysfunction test induced by doxorubicin (sarcomere shortening of isolated cardiomyocytes); type: cell-based
Procedure: as §1
The myocytes are transferred into a chamber at 37° C., continuously perfused and positioned on the stage of an inverted microscope. The chamber is perfused with a physiological buffer containing (in mM): NaCl-140; KCl 5.4; CaCl2 1; MgCl2 0.8; HEPES 10 and glucose 5.6 (pH=7.4; 290 mOsmol/kgH2O).
Contraction of the myocytes is induced once a second (1 Hz) with platinum field electrodes placed in the chamber and connected to a simulator. The images are captured continuously with a ×20 objective and transmitted to a CCD camera at a rate of 240 samples/s. […]
The myocytes were selected for the study according to the following criterion: a rod-like aspect with very apparent striations and no intracellular vacuola, no spontaneous contraction when they are stimulated with 1 mM Ca^2+, and with constant rest length and contraction amplitude. The length of the sarcomers was measured by a video image analysis program and the data were captured at a rate of 240 samples/s. […]
Apoptosis is induced in isolated cardiomyocytes by exposing them for 3 to 8 hrs to 1 μM of doxorubicin added in an isotonic solution containing (in mM) NaCl 110, KCl 5.4, Na2PO4 0.33, NaHCO3 25, Glucose 5, MgCl2 0.8, CaCl2 1, pH adjusted to 7.4. […] The contractility of cardiomyocytes was measured every hour during the 8 hrs of exposure to doxorubicin. […]

mice = assay: Toxicological study in mice; type: in vivo; conditions: oral, sub-cutaneous, intra-peritoneal and intravenous routes, doses up to 300 mg/kg/day, daily, as far as 28 days
Male CD1 adult mice = assay: In vivo model of acute hepatotoxicity induced by Jo2 anti-Fas antibody (ALAT assay, survival)
Text: An acute hepatic damage model may be induced by a single injection of the Jo2 anti-Fas antibody (Ogasawara et al., Nature, August 1993), producing severe hepatic damages and resembling viral, auto-immune or drug-induced hepatitis.
Alanine Aminotransferase (ALAT) also called Serum Glutamic Pyruvic Transaminase (SGPT) is an enzyme present in hepatocytes.
The conducted experimentation consisted in intoxicating animals with Jo2 followed by an assay of ALATs and of testing the cholest-4-en-3-one oxime capability of protecting hepatocytes.
Male CD1 adult mice from the breeder “Elevage Janvier”, (Le Genest-Saint-Isle, France) were used. The animals were identified individually and had free access to water and food.
The stock solution of monoclonal hamster anti-mouse CD95 (Fas) antibody called Jo2, from Pharmingen (BD Biosciences, ref. 554254 batch 66081) is at a concentration of 1 mg/mL in water. The dilutions used are produced in 0.9% sodium chloride in water.
The desired amount of cholest-4-en-3-one oxime is weighed and milled into a fine powder, and then suspended (60 mg/ml) in maize oil. The compound is administered orally (by force-feeding) at a concentration of 5 ml/kg.
A pre-treatment with cholest-4-en-3-one oxime is carried out at a dose of 300 mg/kg per oral administration 4 hrs before administering the Jo2 antibody. […]

caspase-3 = assay: Apoptosis by caspase-3 activity measurement in doxorubicin-exposed cardiomyocytes; type: cell-based, rabbit; conditions: 8 hrs after exposure, control 18±9 fmol/min
Procedure: as §1
Caspase-3 activity is used as a quantitative method for measuring apoptosis. Briefly, the cells are lysed and the supernatant is used for caspase-3 activity measurement by using the AK-005 kit (Biomol Research Laboratories, Plymouth Meeting, Pa., USA). The fluorogenic substrate for measuring caspase-3 activity (DEVD) is marked with the fluorochrome, 7-amino-4-methyl coumarin (AMC) which produces […] fluorescence detectable in UV light at 360/460 nm for 210 min. AMC is released from the substrate by cleavage by caspase-3, the expression of the enzyme is expressed in fmol/min.
Apoptosis is induced in isolated cardiomyocytes by exposing them for 3 to 8 hrs to 1 μM of doxorubicin added in an isotonic solution containing (in mM) NaCl 110, KCl 5.4, Na2PO4 0.33, NaHCO3 25, Glucose 5, MgCl2 0.8, CaCl2 1, pH adjusted to 7.4. Annexin V marking was carried out 3 hrs after the beginning of exposure to doxorubicin since this phenomenon appears very early in the apoptotic cascade. Caspase-3 activity measurements were conducted 8 hrs after exposure to doxorubicin since this phenomenon takes place later in the apoptosis phenomenon. The contractility of cardiomyocytes was measured every hour during the 8 hrs of exposure to doxorubicin. After all the treatments, the cells were compared with control cardiomyocytes not exposed to doxorubicin. […]

| Compound | change in % of annexin V marking ([1]; doxorubicin + 0.3 μM compound) [%] | change in % of annexin V marking ([1]; doxorubicin + 1 μM compound) [%] | change in % of annexin V marking ([1]; doxorubicin + 3 μM compound) [%] | toxicity (monkeys) | shortening of the peak relatively to the base line ([2]; 0.3 μM compound, 15 min pretreatment, 1 μM doxorubicin, after 4 hrs of exposure) [%] | shortening of the peak relatively to the base line ([2]; 1 μM compound, 15 min pretreatment, 1 μM doxorubicin, after 4 hrs of exposure) [%] | shortening of the peak relatively to the base line ([2]; 3 μM compound, 15 min pretreatment, 1 μM doxorubicin, after 4 hrs of exposure) [%] | toxicity (mice) | ALAT activity (U/L) Mean +/− SEM (n) (Male CD1 adult mice; 300 mg/kg oral 4 hrs before Jo2 125 μg/kg i.p., measured 24 hrs after Jo2, control 2,586 ± 474, p = 0.0037) | death of mice within 24 hrs following the Jo2 injection (Male CD1 adult mice; 300 mg/kg oral, 4 hrs before the Jo2 antibody) | caspase-3 activity (caspase-3; doxorubicin + 0.3 μM compound) [fmol/min] | caspase-3 activity (caspase-3; doxorubicin + 1 μM compound) [fmol/min] | caspase-3 activity (caspase-3; doxorubicin + 3 μM compound) [fmol/min] | change in % of annexin V marking ([1]; 1 μM doxorubicin alone) [%] | shortening of the peak relatively to the base line ([2]; 1 μM doxorubicin alone, after 4 hours of exposure, control −19.49±2.06%, n=5) [%] | caspase-3 activity (caspase-3; 1 μM doxorubicin alone) [fmol/min] |
| --- | --- | --- | --- | --- | --- | --- | --- | --- | --- | --- | --- | --- | --- | --- | --- | --- |
| CC(C)CCC[C@@H](C)[C@H]1CC[C@H]2[C@@H]3CCC4=CC(=NO)CC[C@]4(C)[C@H]3CC[C@]12C [cholest-4-en-3-one oxime] | 130 | 121 | 115.5 | did not reveal any toxicity | −25.35±0.18 | −15.66±5.72 | −13.95±3.17 | did not show any significant toxicity | 1,136 ± 175 (20) U/L | prevent the death of mice | 33 ± 9 | 18 ± 8 | 11 ± 4 | – | – | – |
| COc1cccc2c1C(=O)c1c(O)c3c(c(O)c1C2=O)C[C@@](O)(C(=O)CO)C[C@@H]3O[C@H]1C[C@H](N)[C@H](O)[C@H](C)O1 [doxorubicin, reference compound] | – | – | – | – | – | – | – | – | – | – | – | – | – | 291 | −53.20±7.70 | 120 ± 15 |
